Measurements as given in patent publication EP0308913A2, “2,6-Methanopyrrolo-3-benzazocines, a process and intermediates for their preparation and their use as medicaments” (HOECHST-ROUSSEL PHARMACEUTICALS INCORPORATED, priority 1987, dated 1989).

tested on: mice; test: modified phenyl-p-quinone writhing assay in mice (analgesia); format: in vivo; settings: Mus musculus, sc; male CD-1 mice; test compound s.c. at peak time before phenyl-p-quinone; calculated ED50 by linear regression; read-out: Analgesic Activity (Inhibition of Writhing ED5Ø (mg/kg, s.c.)) (converted)
Procedure: The 2,6-methanopyrrolo-3-benzazocines of this invention are useful as analgetics due to their ability to alleviate pain in mammals. The procedure employed to determine analgetic utility is a modification of the phenyl-p-quinone writhing assay in mice, a standard assay for analgesia [Proc. Soc. Exptl. Bio. Med., 95 729 (1957)]. In the modified procedure phenyl-p-benzoquinone (Eastman, 12.5 mg) is dissolved in 5 ml of 95% ethanol and the solution is diluted to a total volume of 100 ml with distilled water. The solution is administered to the subject mice […] at a dose of 10 ml per kg of body weight. A characteristic "writh", an inward rotation of one or more feet with twisting and turning of the trunk, drawing in of the abdominal wall, lordosis and arching of the back, is produced.
A total of 28 male mice (Charles River, CD-1), weighing 18 to 30 grams, are employed for a time response. The subject animals receive food and water ad libitum. Test compounds are dissolved in distilled water, or suspended in distilled water containing one drop of a suitable surfactant, such as Tween-80.
Four groups of five animals (20 animals) are given the test compound subcutaneously at 15, 30, 45 and 60 minutes prior to administration of the phenyl-p-quinone. Four control groups of 2 animals (8 animals) receive an equal volume of the vehicle. After the administration of the phenyl-p-quinone, the mice are placed separately in one liter beakers, and after five minutes, are observed for ten minutes. The number of writhes for each animal is recorded. The following formula is used to compute the percent inhibition: [formula]
The time period with the greatest percent of inhibition is considered the peak time. A dose range determination is generally reserved for those compounds which inhibit writhing by greater than 65-70% at the screening dose.
A dose range determination is run in the same manner as the time response except 10 animals per group are tested at the peak time of test drug activity. Fifty animals, 4 test drug groups, and a vehicle control are employed. Animals are dosed and tested in a randomized manner. A calculated ED₅₀, i.e., the dose at which 50% inhibition of writhing is produced, is determined by a computer linear regression analysis. The calculated subcutaneous (s.c.) dose effecting an approximately 50% inhibition of writhing (ED₅₀) in mice produced in this assay is as follows: […]

Point of comparison: `CC1C2Cc3c(ccc4c3C(=O)C(=O)N4)C1(C)CCN2C` (stereo not shown) [1,2,3,4,5,6-Hexahydro-3,6,12-trimethyl-2,6-methanopyrrolo[2,3-j][3]benzazocine-10,11(9H)-dione], ED50 24.3 mg/kg. Against it:
- CC(C)=CCN1CCC2(C)c3cc(O)ccc3CC1C2C (stereo not shown) [pentazocine, reference compound] — 19-fold lower, 1.3 mg/kg
- CC1C2Cc3cc4cc[nH]c4cc3C1(C)CCN2C (stereo not shown) [1,2,3,4,5,6-Hexahydro-3,6,12-trimethyl-2,6-methano-8H-pyrrolo[2,3-i][3]benzazocine] — within 1.5-fold, 29.5 mg/kg
- CC1C2Cc3ccc4[nH]ccc4c3C1(C)CCN2C (stereo not shown) [1,2,3,4,5,6-hexahydro-3,6,12-trimethyl-2,6-methano-9H-pyrrolo[3,2-h][3]benzazocine] — 40-fold lower, 0.6 mg/kg
- CC1C2Cc3cc4[nH]ccc4cc3C1(C)CCN2C (stereo not shown) [1,2,3,4,5,6-hexahydro-3,6,12-trimethyl-2,6-methano-10H-pyrrolo[3,2-i][3]benzazocine] — 14-fold lower, 1.8 mg/kg
- CC1C2Cc3cc4c(cc3C1(C)CCN2C)NCC4 (stereo not shown) [1,2,3,4,5,6,9,10-Octahydro-3,6,12-trimethyl-2,6-methano-8H-pyrrolo[2,3-i][3]benzazocine] — within 1.5-fold, 35.5 mg/kg
- CC1C2Cc3c(ccc4[nH]ccc34)C1(C)CCN2C (stereo not shown) [1,2,3,4,5,6-Hexahydro-3,6,12-trimethyl-2,6-methano-9H-pyrrolo[2,3-j][3]benzazocine] — within 1.5-fold, 30.4 mg/kg
